{"source": "patent US20210128596A1", "about": "“COMPOSITIONS AND METHODS FOR TREATING SEPTIC CARDIOMYOPATHY” (UNIVERSITY OF PENNSYLVANIA, priority 2017, published 2021)", "key": {"[1]": {"tested_on": "adult cardiomyocytes isolated from septic mice", "assay": "Seahorse oxygen consumption rate in cardiomyocytes isolated from septic mice", "type": "in vivo, mouse", "method": "Mice were either sham treated or subjected to cecal ligation puncture followed by SDG treatment. The oxygen consumption rate (OCR) was measured in a seahorse assay.\nAdult mouse cardiomyocytes isolation—Adult mouse cardiomyocytes (ACMs) were isolated from ventricles of C57BL/6 mice 12 hours post-sham surgery, CLP surgery or combined performance of CLP and treatment with LGM2605 at 6 hours post-surgery. Hearts from heparinized mice (90 USP; ip) were cannulated through the aorta. Hearts were perfused with perfusion buffer (120.4 mMNaCl, 14.7 mM KCL, 0.6 mM NaH2PO4, 0.6 mM KH2PO4, 1.2 mM MgSO4, 10 mM Hepes, 4.6 mM NaHCO3, 30 mMtaurine, 10 mM BDM, 5.5 mM glucose; pH 7.4) for 3 min followed by digestion with perfusion buffer containing 19250 units Collagenese type II (Worthington), 5-6 mg trypsin and 0.02 mM CaCl2 for 7 min. Ventricles were gently teared into small pieces, perfusion buffer containing 5 mg/ml BSA and 0.125 mM CaCl2 was added and filtered with 100 μm nylon. The filtrate was pelleted by gravity for 5 min, centrifuged for 30 sec at 700 rpm and the pellet resuspended in perfusion buffer containing 5 mg/ml BSA and 0.225 mM CaCl2. The cells were pelleted by gravity for 10 min, centrifuged for 30 sec at 700 rpm and the pellet resuspended in perfusion buffer containing 5 mg/ml BSA and 0.525 mM CaCl2.\nSeahorse analysis—Isolated primary ACMs were counted with Hematocytometer. Dead cells were detected with Trypan Blue Dye staining. Cells were platted (3000 cells per well) in XF96 Seahorse® plates pre-coated with laminin with 20 μg/ml laminin (Invitrogen, 23017). In order to assess oxygen consumption rates (OCR) for fatty acid oxidation (FAO) recordings, cells were incubated in substrate limited medium (DMEM containing 10 mM Glucose, 1.025 mM CaCl2, 0.5 mM carnitine, pH=7.4) and assayed with fatty acid oxidation medium as per manufacturer's protocol. Before starting the assay, 1 mM palmitate conjugated with BSA was added in each well. Drugs used for maximal response during fatty acid oxidation were: Oligomycin (3 μM) (Sigma, 04875) which blocks complex V, FCCP (2 μM) (Sigma, C2920) that leads to the collapse of the proton gradient, and Rotenone/Antimycin A (0.5 μM) (Sigma, A8674)/(Sigma, R8875) where rotenone blocks complex I and antimycin A blocks complex III. The pre-hydrated with XF assay calibrant, XF cartridges were filled with the drugs and the cartridge was calibrated for 30 minutes in Seahorse Analyzer. All experiments were performed at 37° C. Calculations were made as described in the Seahorse manual and XF Seahorse Mito Stress Test kit user guide. Briefly, basal respiration was calculated with subtraction of non-mitochondrial respiration rate from the last measurement prior to first injection. Maximal respiration was calculated by subtraction of the non-mitochondrial respiration measurement from maximum measurement after FCCP injection. ATP synthesis-related OCR was obtained indirectly by measuring ATP-linked respiration in the presence of complex V inhibitor (Oligomycin). The decrease of oxygen consumption rate representing the portion of basal respiration that was used to drive ATP synthesis was calculated with subtraction of the minimum measurement after Oligomycin injection from the last measurement prior to Oligomycin injection. Spare Respiratory Capacity was equal to (maximum respiration)−(basal respiration)."}, "β adrenergic receptors": {"tested_on": "β adrenergic receptors", "assay": "Radioligand binding assay for cardiac β-AR density", "type": "in vivo, mouse", "conditions": "hearts 12 h post-CLP, LGM2605 6 h post-CLP", "method": "Radioligand binding assay—Plasma membranes from excised mouse hearts were prepared, and saturation radio-ligand binding was performed as described previously, using ^125I-CYP (iodocyanopindolol; PerkinElmer, Waltham, Mass.) for β-AR density measurement. Data were analyzed by nonlinear regression analysis using GraphPad Prism (GraphPad Software, La Jolla, Calif.)."}, "AC16 cells [2]": {"tested_on": "AC16 cells", "assay": "mRNA levels of fusion and fission markers, quantitative PCR, LPS", "type": "cell-based, human", "method": "AC16 cells were either left untreated or treated with Liposaccharide (LPS) in the absence or presence of SDG; the levels of DRP1, Opa, MFN1, MFN2, and FIS1 mRNAs were measured in quantitative PCR.\n(§1) RNA purification and gene expression analysis—Total RNA was purified from AC16 cells or hearts using the TRIzol reagent according to the instructions of the manufacturer (Invitrogen). DNase-treated RNA was used for cDNA synthesis using the ProtoScript II First Strand cDNA Synthesis Kit (New England Biolabs). Quantitative real-time PCR was performed with the Sybr Select Master Mix (Applied Biosystems). Incorporation of the SYBR green dye into the PCR products was monitored with the Applied Biosystems StepOnePlus Real-Time PCR System. Samples were normalized against mouse 36B4 or human rps13 RNA."}, "AC16 cells [3]": {"tested_on": "AC16 cells", "assay": "Mitochondrial membrane potential (TMRM staining) in AC16 cells", "type": "cell-based, human", "method": "To measure mitochondrial membrane potential, AC16 cells were stained with TMRM (62.5 nM, T668, Molecular Probes) for 30 minutes in the dark. TMRM stain was washed in warm PBS three times and imaged at 200× magnification using the Cy3 filter (510 nm excitation wavelength)."}, "AC16 cells [4]": {"tested_on": "AC16 cells", "assay": "cAMP levels in AC16 cells", "type": "cell-based, human", "method": "AC16 cells were either left unstimulated or stimulated with either forskolin or isoproterenol for 12 hours and then treated with SDG, Liposaccharide (LPS) or both.\n(§2) Cell culture—A human ventricular cardiomyocyte-derived cell line, designated AC-16, was used for some in vitro experiments. Cells were maintained in Dulbecco's modified Eagle's medium-nutrient mixture F-12 (DMEM-F-12; Invitrogen, Carlsbad, Calif.)."}, "[5]": {"tested_on": "cardiac tissue isolated from septic mice", "assay": "Autophagy markers (LC3BII/LC3BI, Map1lc3b, BNIP3) in cardiac tissue", "type": "in vivo, mouse", "method": "as §1\nProtein purification and analysis—Isolated heart tissue or AC16 cells were homogenized in radioimmune precipitation assay buffer containing protease and phosphatase inhibitors (Pierce Protease and Phosphatase Inhibitor Mini Tablets, Thermo Scientific). 30-50 μg of total protein extract was applied to SDS-PAGE and transferred onto nitrocellulose membranes."}, "protein kinase A (PKA)": {"tested_on": "protein kinase A (PKA)", "assay": "Protein kinase A (PKA) activity in AC16 cells", "type": "cell-based, human", "excerpt": "AC16 cells were either left untreated or treated with SDG, Liposaccharide (LPS), or both.\nas §2"}, "[6]": {"conditions": "CLP + LGM2605 (6 hrs post-CLP), cardiomyocytes 12 hrs after surgery"}}, "note": "Entries after “also recorded” stand apart in the source; their conditions may differ.", "data": [{"smiles": "COc1cc(C[C@@H](CO[C@@H]2O[C@H](CO)[C@@H](O)[C@H](O)[C@H]2O)[C@H](CO[C@@H]2O[C@H](CO)[C@@H](O)[C@H](O)[C@H]2O)Cc2ccc(O)c(OC)c2)ccc1O", "note": "[LGM2605, secoisolariciresinol diglucoside]", "values": [{"measurement": "basal respiration and oxygen consumption rate associated with ATP synthesis", "setting": "[1]; [6]", "result": "increased basal respiration levels (FIG. 18B) and oxygen consumption rate associated with ATP synthesis (FIG. 18C), compared to both CLP and sham mice"}, {"measurement": "maximal respiration and respiratory spare capacity", "setting": "[1]; [6]", "result": "markedly elevated by LGM2605 treatment"}, {"measurement": "maximal respiration, ATP production, non-mitochondrial oxygen consumption", "setting": "[1]; CLP + SDG relative to levels observed after CLP", "result": "statistically significant increase in maximal respiration, ATP production, and non-mitochondrial oxygen consumption relative to levels observed after CLP"}, {"measurement": "basal respiration, maximal respiration, ATP production, non-mitochondrial oxygen consumption", "setting": "[1]; CLP + SDG relative to the untreated levels", "result": "statistically significant increase in basal respiration, maximal respiration, ATP production, and non-mitochondrial oxygen consumption relative to the untreated levels"}, {"measurement": "oxygen consumption rate (OCR)", "setting": "[1]; CLP followed by SDG treatment vs CLP and sham, listed as SDG", "result": "more than compensated for that decrease; also recorded: increased oxygen consumption rate (OCR) compared to CLP alone and sham operated mice"}, {"measurement": "proton leakage", "setting": "[1]; sham, CLP, CLP + SDG", "result": "no statistically significant changes in proton leakage were observed"}, {"measurement": "cardiac β-AR density", "setting": "β adrenergic receptors", "result": "not reversed by treatment with LGM2605"}, {"measurement": "levels of DRP1, Opa, MFN1, MFN2, and FIS1 mRNAs", "setting": "AC16 cells [2]; 6-hour LPS treatment (FIG. 8A)", "result": "restored the levels of all the markers"}, {"measurement": "levels of DRP1, Opa, MFN1, MFN2, and FIS1 mRNAs", "setting": "AC16 cells [2]; 12 hour LPS treatment (FIG. 8B)", "result": "restored the levels of all the markers, although only the change in MFN2 levels was statistically significant"}, {"measurement": "TMRM staining (mitochondrial membrane potential)", "setting": "AC16 cells [3]; LGM2605 with 50 μM 2,4-DNP, with or without LPS", "result": "lost its beneficial effect in restoring TMRM staining"}, {"measurement": "TMRM staining (mitochondrial membrane potential)", "setting": "AC16 cells [3]; LPS and LGM2605 12 hours", "result": "significantly restored TMRM staining toward baseline"}, {"measurement": "cAMP levels", "setting": "AC16 cells [4]; SDG in the presence of LPS", "result": "this increase was abolished in the presence of LPS"}, {"measurement": "cAMP levels", "setting": "AC16 cells [4]; in the presence of forskolin or isoproterenol", "result": "appears to be insignificant"}, {"measurement": "cAMP levels", "setting": "AC16 cells [4]; non-stimulated, 12 hours", "result": "increased cAMP levels"}, {"measurement": "autophagy markers (LC3BII/LC3BI ratio; Map1lc3b and BNIP3 mRNA)", "setting": "[5]; cardiac tissue from septic mice", "result": "Neither marker was alleviated by LGM2605"}, {"measurement": "expression of the mitochondrial damage marker BNIP3", "setting": "[5]; septic mice following LGM2605 administration", "result": "trend for reduced expression of the mitochondrial damage marker BNIP3"}, {"measurement": "protein kinase A (PKA) activity", "setting": "protein kinase A (PKA); SDG alone", "result": "increased protein kinase A (PKA) activity"}, {"measurement": "protein kinase A (PKA) activity", "setting": "protein kinase A (PKA); SDG in the presence of LPS", "result": "this stimulation was abolished in the presence of LPS"}, {"measurement": "protein kinase A (PKA) activity", "setting": "protein kinase A (PKA); SDG with isoproterenol", "result": "the increase was amplified by isoproterenol"}]}]}
